Test results as given in the NIST ThermoML archive (doi:10.1016/j.jct.2016.08.006).

Assay: molar heat capacity at constant pressure; xn = mol fraction of the nth substance listed
Conditions: 101.3 kPa, Liquid, Small sample (50 mg) DSC

NCCN1CCNCC1 [N-(β-aminoethyl)piperazine)] + O
molar heat capacity at constant pressure [J/K/mol]
Conditions	x1 = 0.1	x1 = 0.3	x1 = 0.5	x1 = 0.7	x1 = 0.9	x1 = 1
303.2 K	109.7	157.3	202.1	242.8	278.3	289.7
308.2 K	110.2	158.5	203.2	244.3	279.8	290.8
313.2 K	110.7	160.3	204.8	246.3	281.6	293.1
318.2 K	111	162.1	206.3	248.1	283.1	294.7
323.2 K	111.4	164.3	208.5	250.6	285.2	296.9
328.2 K	111.4	165.7	210	252.5	287	298.5
333.2 K	111.6	167.3	211.8	253.5	289	300.7
338.2 K	111.8	168.7	213.6	254.5	290.9	302.2
343.2 K	112.4	170.1	215.2	255.9	292	303.3
348.2 K	112.6	171.4	216.3	256.2	292.5	303.6
353.2 K	112.9	173.1	217.6	257.3	293.7	304.6

CNCCN(C)C [N,N,N'-trimethylethylenediamine] + O
molar heat capacity at constant pressure [J/K/mol]
Conditions	x1 = 0.1	x1 = 0.3	x1 = 0.5	x1 = 0.7	x1 = 0.9	x1 = 1
303.2 K	105.2	151	188.5	217.4	245.2	258.3
308.2 K	105.5	152.4	190.1	219.1	246.8	260
313.2 K	106.1	154	192.1	221.2	249.3	262.7
318.2 K	106.5	155.6	193.9	223.1	251.7	265.3
323.2 K	107.3	157.8	196.1	226	255.5	269.2
328.2 K	107.6	159.5	198.2	228.5	258.7	272.7
333.2 K	108.1	161.4	200.2	231	261.8	276
338.2 K	108.5	162.7	201.9	233.3	264.4	278.9
343.2 K	109	163.8	203.3	235.3	267.3	281.3
348.2 K	109.4	164.8	204.4	237.5	270.2	283.4
353.2 K	110.3	166.2	206.3	239.8	273.1	286.6
